# “And” between values parts separate entries of the source, which are not always exact repeats. Equal values may be shown once.
# Legend:
# [1] = tested on: AMO-1 cells; assay: Cell proliferation, XTT-based assay; design: species or system human; conditions: Homo sapiens, AMO1, bortezomib alone, XTT, read-out: IC50 (inhibition of cell proliferation)
# Procedure: (§1) Cells were collected and distributed in 96-well plates with 5000 cells per well.
# (§2) After incubation, plates were analyzed for cell proliferation in a quantitative colorimietric XTT-based assay using the cell proliferation kit II (ROCHE, Cell Proliferation Kit II, Cat. No.: 11465015001). For subsequent measurement plates were subjected to Tecan Genios Reader and absorbance at 492 nm was detected.
# (§3) Increasing amounts of Bortezomib (Velcade®, Lot: No.: #9AZSY00) were applied to AMO-1, LP-1, NCI-H929 and RPMI-8226 cells and incubated for 24 h, 48 h and 72 h. After incubation, period plates were analyzed for cell proliferation in a quantitative colorimietric XTT-based assay using the cell proliferation kit II (ROCHE, Cell Proliferation Kit II, Cat. No.: 11465015001). For subsequent measurement, plates were subjected to Tecan Genios Reader and absorbance at 492 nm was detected.
# [2] = tested on: LP-1 cells; assay: Cell proliferation, XTT-based assay; conditions: Homo sapiens, bortezomib alone, read-out: IC50 (inhibition of cell proliferation)
# Procedure: as §3
# [3] = tested on: RPMI-8226 cells; assay: Cell proliferation, XTT-based assay; conditions: Homo sapiens, bortezomib alone, read-out: IC50 (inhibition of cell proliferation)
# Procedure: as §3
# [4] = tested on: LP-1 cells; assay: ADCC with human PBMCs, flow cytometry (CalceinAM/PI); assay type: cell-based; conditions: LP-1 target cells treated with bortezomib before MOR202 15 μg/ml; FIG. 10
# Procedure: Using the methods described in Example 4, the ADCC effect of combining bortezomib and MOR202 was analyzed. Here, the target cells were treated with bortezomib prior to the treatment with MOR202. Both target cells. NCI-H929 and LP-1 cells were tested.
# [5] = tested on: NCI-H929 MM cells; assay: NCI-H929 bone lysis SCID mouse model, MOR202 and BOR (MicroCT); assay type: in vivo, SCID mice
# Text: 63 SCID mice were inoculated on Day (−7) intra-tibially with 2.5×10^6 NCI-H929 MM cells in order to induce bone lysis. Bortezomib (Groups A and AB) and Vehicle Control (Group C) treatments started on Day (−1). MOR202 treatments (Groups B and AB) started on Day 0. Treatment continued for 6 weeks.
# MicroCT Scan was used to assess bone lysis and included a 3-dimensional analysis comprising Total Bone Volume (TBV), Trabecular Bone Volume (Tb.BV), Trabecular Pattern Factor (Tb.Pf) and Structure Model Index (SMI). Table 10 above defines each of these parameters.
# [6] = tested on: RAMOS cells; conditions: BOR 0.6 mg/kg i.p., MOR202 1 mg/kg i.v.
# Procedure: Fifty-five female SCID mice were pre-treated with Cyclophosphamide (75 mg/kg, i.p., twice daily) for two days prior to RAMOS cell inoculation (Day −5 and −4). On the day of inoculation (Day −3), all fifty-five mice were inoculated with 1×10^6 RAMOS cells each (in 100 μL) intravenously into the tail vein. Forty-eight of the mice were randomised by body weight into six groups of eight.
# The study continued for 98 days and the measured endpoint was survival.
# [7] = tested on: NCI-H929 cells; assay: Cell proliferation, XTT-based assay; conditions: Homo sapiens, NCI-H929, read-out: IC50 (inhibition of cell proliferation)
# Procedure: as §1, §2, §3
# [8] = tested on: NCI-H929 cells; assay: ADCC with human PBMCs, flow cytometry (CalceinAM/PI); conditions: NCI-H929 target cells treated with bortezomib before MOR202 15 μg/ml; FIG. 9
# Procedure: PBMC's were isolated by density gradient centrifugation of freshly isolated human blood. Isolated blood from different donors were layered on a defined volume of Biocoll (Biochrome AG; CAT No.:L6115; LOT No.:1050T) in a Falcon tube and centrifuged at 380 g. The PBMCs were isolated and supplemented with RPMI medium.
# Cell suspensions were further incubated for 4 h at 37° C. To detect dead AMO-1 cells, cell suspensions were challenged with propidium iodide (PI) and subsequently analyzed in flow cytometry. Target cells were separated via gating of CalceinAM positive cell populations, and cells killed via ADCC were quantified.
# Single and combination doses of 5 μM LEN and 15 μg/ml of MOR03207 and 0.2 or 0.07 μg/ml MOR202 were used.
# Single and combination doses of 5 μM LEN and 15 μg/ml of MOR03207 and 0.2* or 0.07 μg/m MOR202 were used.
# [9] = Bortezomib 0.6 mg/kg i.p. twice per week, MOR202 3 mg/kg i.p. three times per week, 6 weeks, lower = less bone lysis
# [10] = group average of 10 mice, Bortezomib 0.6 mg/kg i.p., MOR202 3 mg/kg i.p., 6 weeks
structure (smiles),measurement,setting,value
CC(C)C[C@H](NC(=O)[C@H](Cc1ccccc1)NC(=O)c1cnccn1)B(O)O [bortezomib],IC50,[1],3.9 nM
same,IC50,[2],6.1 nM
same,IC50,[3],9 nM
same,Enhancement of MOR202 ADCC activity by bortezomib (in words),[4],enhancement in MOR202 activity
same,"Structure Model Index (SMI), individual mouse",[5]; [9],2.443 and 2.374 and 2.156 and 2.262 and 2.700 and 2.981 and 3.007 and 2.553 and 2.337 and 2.273
same,"Trabecular Pattern Factor (Tb · Pf), individual mouse",[5]; [9],25.893 mm^−1 and 26.044 mm^−1 and 16.877 mm^−1 and 23.179 mm^−1 and 32.463 mm^−1 and 33.152 mm^−1 and 34.609 mm^−1 and 31.813 mm^−1 and 27.147 mm^−1 and 23.582 mm^−1
same,"Structure Model Index (SMI), Average",[5]; [10],2.509
same,"Trabecular Pattern Factor (Tb · Pf), Average",[5]; [10],27.476 mm^−1
same,Reduction of bone lysis compared to vehicle control,"[5]; non-inoculated tibia = 0%, vehicle = 100% bone lysis, MOR202 alone 12 mg/kg, BOR alone 0.6 mg/kg, combination 3 mg/kg MOR202 and 0.6 mg/kg BOR",40%
same,Number of mice alive at study termination (day 98),[6],0/8
same,Day of death (post-inoculation) Mean,[6]; study 98 days,19.1 days
same,Day of death (post-inoculation) Median,[6]; study 98 days,19 days
same,% ILS (based on median death day),[6]; vs vehicle control,−7%
same,IC50,[7],3.3 nM
same,Enhancement of MOR202 ADCC activity by bortezomib (in words),[8],enhancement in MOR202 activity

# — US9289490B2, “Combinations and uses thereof” (MORPHOSYS AG, priority 2010, dated 2016)
